Measured values taken from US20180221384A1, “COMPOSITIONS OF MIDAZOLAM FOR BUCCAL ADMINISTRATION IN THE TREATMENT OF SEIZURES TO OBTAIN RAPID ONSET OF ACTION” (SWIPP AB, priority 2015, published 2018).
Counter-ions that a name gives are not always drawn. Like-named read-outs stand apart in the source and are kept apart here.

Legend:
[1] = Pilot in vivo study: midazolam film preparation applied on the oro-mucosal membrane, plasma levels by LC-MS/MS; details: for Corresponding plasma levels in children weighing 20 kg: at least; for Side-effects: healthy volunteers
Experimental: Film preparations weighing approximately 0.07 g (1×2 cm) containing 2 mg midazolam hydrochloride were applied on the oro-mucosal membrane in healthy volunteers (body weight 90 kg). Venous blood samples were drawn 6, 12 and 18 minutes after application.
Film preparations weighing approximately 0.07 g (1×2 cm) containing 1 mg midazolam hydrochloride were applied on the oro-mucosal membrane in healthy volunteers (body weight 90 kg). Venous blood samples were drawn 6, 12 and 18 minutes after application.

[2] = cited from earlier work
[3] = cited from earlier work; remark: listed apart in the source
[4] = human, plasma, other: applied on the oro-mucosal membrane, 1 mg
[5] = midazolam solution 5 mg buccal, healthy volunteers (Schwagmeier et al. 1998)

Structure (SMILES) | Corresponding plasma levels in children weighing 20 kg ([1]; extrapolated from adults given 1 mg film) | Corresponding plasma levels in children weighing 20 kg ([1]; extrapolated from adults given 2 mg film) | Side-effects ([1]; film containing 1 mg midazolam hydrochloride) | Side-effects ([1]; film containing 2 mg midazolam hydrochloride) | Average plasma levels ([1]; film containing 2 mg midazolam hydrochloride, oro-mucosal, healthy volunteers 90 kg) | concentration at 6 min [1, 4] | concentration at 12 min [1, 4] | Time to plasma concentration of 5 ng/mL ([2]; approx. 10 mg midazolam, adult volunteers, most of the subjects (Scott et al. 1998)) | Blood levels [2, 5] | Time to blood levels of 5-10 ng/mL [2, 5] | Blood levels ([1]; buccal film or wafer, dose 2 mg, adult volunteers (summary in description)) | Plasma level ([1]; buccal film, dose 1 mg midazolam, adult 90 kg (summary in description)) | Plasma level (in words) ([1]; buccal film, dose 1 mg, adults average body weight 90 kg) | Time to anticonvulsive effect ([3]; adults administered 10-20 mg (Nakken et al. 2011)) | Time to anticonvulsive effect ([3]; children, buccal dose 0.2 mg/kg (Talukbar et al. 2009))
Cc1ncc2n1-c1ccc(Cl)cc1C(c1ccccc1F)=NC2 [midazolam hydrochloride, Midazolam hydrochloride] | 15 to 20 ng/mL | 15 to 50 ng/mL | No side-effects were observed | No side-effects were observed | 5 ng/mL | 1 ng/mL | 4.6 ng/mL |  |  |  |  |  |  |  | 
Cc1ncc2n1-c1ccc(Cl)cc1C(c1ccccc1F)=NC2 [midazolam, Midazolam] |  |  |  |  |  |  |  | 5 to 10 min | 5 to 10 ng/mL | 3 to 6 min | 5 to 10 ng/mL | about 5 ng/mL | therapeutic levels | ≤ 5 min | ≤ 5 min
